According to patent US20230079819A1, “COMPOUNDS AND USES THEREOF” (Foghorn Therapeutics Inc., priority 2019, published 2023):
pIC50: −log10 of the molar value.

Experiments:
BRM = molecular target: T1, BRM (Homo sapiens, UniProt P51531); assay: ATPase catalytic activity of BRM, ADP-Glo in vitro biochemical assay; conditions: ATPase catalytic activity, 30 nM BRM, 400 μM ATP, read-out: BRM IP50
T1 construct: made in house; host or cells: High Five insect cells

BRG-1 = molecular target: T2, BRG-1 (Homo sapiens, UniProt P51532); assay: ATPase catalytic activity of BRG-1, ADP-Glo in vitro biochemical assay; conditions: ATPase catalytic activity, 30 nM BRG-1, 400 μM ATP, read-out: BRG1 IP50
T2 construct: made in house; host or cells: High Five insect cells
T2 sequence (P51532 whole entry): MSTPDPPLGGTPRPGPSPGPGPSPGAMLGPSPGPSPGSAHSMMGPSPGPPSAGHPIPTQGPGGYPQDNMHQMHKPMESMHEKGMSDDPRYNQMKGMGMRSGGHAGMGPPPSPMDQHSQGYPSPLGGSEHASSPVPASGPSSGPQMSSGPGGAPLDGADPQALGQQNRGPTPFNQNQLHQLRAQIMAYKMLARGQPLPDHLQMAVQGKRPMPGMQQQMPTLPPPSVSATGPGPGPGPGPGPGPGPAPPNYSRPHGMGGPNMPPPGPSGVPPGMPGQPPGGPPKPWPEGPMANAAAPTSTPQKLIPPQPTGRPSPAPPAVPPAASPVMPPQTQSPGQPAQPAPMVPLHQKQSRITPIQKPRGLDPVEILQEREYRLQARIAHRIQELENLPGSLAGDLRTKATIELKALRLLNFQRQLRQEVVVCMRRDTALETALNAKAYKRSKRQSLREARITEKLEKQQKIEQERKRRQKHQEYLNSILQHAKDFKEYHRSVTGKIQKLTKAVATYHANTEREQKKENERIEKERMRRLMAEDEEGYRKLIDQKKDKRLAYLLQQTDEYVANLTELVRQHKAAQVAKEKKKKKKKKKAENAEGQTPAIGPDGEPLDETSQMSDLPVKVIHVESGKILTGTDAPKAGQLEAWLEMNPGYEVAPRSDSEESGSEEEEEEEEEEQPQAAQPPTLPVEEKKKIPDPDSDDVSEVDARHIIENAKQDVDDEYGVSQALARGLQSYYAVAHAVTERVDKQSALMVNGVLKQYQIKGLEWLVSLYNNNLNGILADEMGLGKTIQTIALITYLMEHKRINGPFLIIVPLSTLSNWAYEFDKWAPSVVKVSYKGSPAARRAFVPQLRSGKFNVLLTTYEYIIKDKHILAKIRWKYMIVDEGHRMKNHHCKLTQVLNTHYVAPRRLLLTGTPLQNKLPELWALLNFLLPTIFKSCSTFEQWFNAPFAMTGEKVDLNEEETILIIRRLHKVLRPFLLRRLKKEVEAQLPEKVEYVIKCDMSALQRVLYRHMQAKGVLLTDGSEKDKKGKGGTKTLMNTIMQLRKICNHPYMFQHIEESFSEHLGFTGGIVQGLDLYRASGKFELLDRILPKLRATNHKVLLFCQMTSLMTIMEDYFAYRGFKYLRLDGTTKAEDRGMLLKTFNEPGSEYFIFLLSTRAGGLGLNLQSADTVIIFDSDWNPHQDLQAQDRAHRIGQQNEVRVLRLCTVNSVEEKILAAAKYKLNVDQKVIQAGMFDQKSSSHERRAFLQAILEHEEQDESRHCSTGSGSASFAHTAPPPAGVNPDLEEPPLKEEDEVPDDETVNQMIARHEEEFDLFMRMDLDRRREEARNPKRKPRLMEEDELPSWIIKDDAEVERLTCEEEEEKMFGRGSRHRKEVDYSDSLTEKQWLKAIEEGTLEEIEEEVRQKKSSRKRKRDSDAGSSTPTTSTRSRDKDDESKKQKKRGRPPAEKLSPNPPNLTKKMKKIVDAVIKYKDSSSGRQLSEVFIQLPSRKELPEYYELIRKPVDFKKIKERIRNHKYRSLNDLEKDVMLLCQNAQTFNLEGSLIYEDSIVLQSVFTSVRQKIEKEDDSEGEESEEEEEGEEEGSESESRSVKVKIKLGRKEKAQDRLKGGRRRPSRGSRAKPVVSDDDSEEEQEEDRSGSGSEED

T1 sequence (P51531 whole entry): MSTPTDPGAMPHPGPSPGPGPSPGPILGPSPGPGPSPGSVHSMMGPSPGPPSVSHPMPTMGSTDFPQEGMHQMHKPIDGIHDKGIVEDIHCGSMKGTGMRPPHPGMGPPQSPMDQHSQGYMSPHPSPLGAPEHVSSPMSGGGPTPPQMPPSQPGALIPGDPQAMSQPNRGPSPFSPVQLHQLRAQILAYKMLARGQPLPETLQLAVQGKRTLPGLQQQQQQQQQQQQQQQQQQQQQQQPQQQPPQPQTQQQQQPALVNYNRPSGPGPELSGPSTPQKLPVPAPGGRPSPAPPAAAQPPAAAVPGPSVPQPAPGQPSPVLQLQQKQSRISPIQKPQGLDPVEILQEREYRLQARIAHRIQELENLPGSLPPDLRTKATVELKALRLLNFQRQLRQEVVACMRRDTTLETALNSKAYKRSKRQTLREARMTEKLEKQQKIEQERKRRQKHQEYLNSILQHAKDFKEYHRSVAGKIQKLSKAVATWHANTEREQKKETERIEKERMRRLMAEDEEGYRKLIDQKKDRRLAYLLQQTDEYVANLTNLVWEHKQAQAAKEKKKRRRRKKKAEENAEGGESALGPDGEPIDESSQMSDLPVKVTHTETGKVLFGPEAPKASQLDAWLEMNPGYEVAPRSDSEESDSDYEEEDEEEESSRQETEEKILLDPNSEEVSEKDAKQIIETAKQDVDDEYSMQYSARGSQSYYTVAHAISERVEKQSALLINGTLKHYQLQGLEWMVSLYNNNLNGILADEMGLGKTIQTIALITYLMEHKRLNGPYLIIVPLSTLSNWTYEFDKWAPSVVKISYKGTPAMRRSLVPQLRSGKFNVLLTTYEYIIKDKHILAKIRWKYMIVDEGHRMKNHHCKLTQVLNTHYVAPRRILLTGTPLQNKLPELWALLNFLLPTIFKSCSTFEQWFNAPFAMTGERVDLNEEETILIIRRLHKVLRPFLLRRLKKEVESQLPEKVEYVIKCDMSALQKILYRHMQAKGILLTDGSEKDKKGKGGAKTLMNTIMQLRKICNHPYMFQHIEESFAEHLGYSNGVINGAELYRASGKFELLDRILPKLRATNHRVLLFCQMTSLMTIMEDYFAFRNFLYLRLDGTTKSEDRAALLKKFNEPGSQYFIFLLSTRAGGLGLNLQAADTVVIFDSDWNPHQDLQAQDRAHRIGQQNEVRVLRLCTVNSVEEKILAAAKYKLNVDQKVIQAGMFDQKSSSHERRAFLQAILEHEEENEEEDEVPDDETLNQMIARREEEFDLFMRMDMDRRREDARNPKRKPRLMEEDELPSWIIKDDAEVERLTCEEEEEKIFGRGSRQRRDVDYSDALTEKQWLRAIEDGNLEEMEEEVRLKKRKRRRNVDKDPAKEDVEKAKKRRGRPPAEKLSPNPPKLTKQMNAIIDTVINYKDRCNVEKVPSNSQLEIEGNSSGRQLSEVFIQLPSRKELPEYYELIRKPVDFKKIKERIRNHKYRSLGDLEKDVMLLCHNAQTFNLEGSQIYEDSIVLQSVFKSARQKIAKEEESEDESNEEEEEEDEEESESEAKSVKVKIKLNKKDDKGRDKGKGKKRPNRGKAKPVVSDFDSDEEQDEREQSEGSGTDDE

## CC(C)(C)n1ccc(C(=O)NCC(=O)Nc2nc(-c3cccc(N4CCc5ccncc5C4)n3)cs2)c1 [Compound 632]
BRM
  pIC50: < 8.00
BRG-1
  pIC50: < 8.00

## CC(C)(C)n1ccc(C(=O)NCC(=O)Nc2nc(-c3cccc(N4CCC(OC(F)F)C4)n3)cs2)c1 (stereo not drawn) [Compound 633]
BRM
  pIC50: < 8.00
BRG-1
  pIC50: < 8.00

## CC(C)(C)n1ccc(C(=O)NCC(=O)Nc2nc(-c3cccc(N4CCC5(CC5)C4)n3)cs2)c1 [Compound 634]
BRM
  pIC50: < 8.00
BRG-1
  pIC50: < 8.00

## CC(C)(C)n1ccc(C(=O)NCC(=O)Nc2nc(-c3cccc(N4CC[C@@H](N5CCOCC5)[C@@H](F)C4)n3)cs2)c1 [Compound 635]
BRM
  pIC50: < 7.00
BRG-1
  pIC50: < 7.00

## CC(C)(C)n1ccc(C(=O)NCC(=O)Nc2nc(-c3cccc(N4CCCC(N5CCCC5)C4)n3)cs2)c1 (stereo not drawn) [Compound 636]
BRM
  pIC50: < 8.00
BRG-1
  pIC50: < 8.00

## Cn1cc2c(n1)CCN(c1cccc(-c3csc(NC(=O)CNC(=O)c4ccn(C(C)(C)C)c4)n3)n1)C2 [Compound 637]
BRM
  pIC50: < 8.00
BRG-1
  pIC50: < 8.00

## CC(C)(C)n1ccc(C(=O)NCC(=O)Nc2nc(-c3cccc(N4CCN5CCOCC5C4)n3)cs2)c1 (stereo not drawn) [Compound 638]
BRM
  pIC50: < 7.00
BRG-1
  pIC50: < 7.00

## CCC(=O)N1CCN(c2cccc(-c3csc(NC(=O)CNC(=O)c4ccn(C(C)(C)C)c4)n3)n2)CC1 [Compound 639]
BRM
  pIC50: < 8.00
BRG-1
  pIC50: < 8.00

## CN(C)C(=O)N1CCN(c2cccc(-c3csc(NC(=O)CNC(=O)c4ccn(C(C)(C)C)c4)n3)n2)CC1 [Compound 640]
BRM
  pIC50: < 8.00
BRG-1
  pIC50: < 7.00

## CN1C(=O)CC[C@H]2CN(c3cccc(-c4csc(NC(=O)CNC(=O)c5ccn(C(C)(C)C)c5)n4)n3)CC[C@H]21 [Compound 641]
BRM
  pIC50: < 7.00
BRG-1
  pIC50: < 7.00

## CCOC1CCN(c2cccc(-c3csc(NC(=O)CNC(=O)c4ccn(C(C)(C)C)c4)n3)n2)CC1 [Compound 642]
BRM
  pIC50: < 7.00
BRG-1
  pIC50: < 7.00

## CN1C(=O)CC[C@@H]2CN(c3cccc(-c4csc(NC(=O)CNC(=O)c5ccn(C(C)(C)C)c5)n4)n3)CC[C@H]21 [Compound 643]
BRM
  pIC50: < 8.00
BRG-1
  pIC50: < 8.00

## CC(C)(C)n1ccc(C(=O)NCC(=O)Nc2nc(-c3cccc(N4CC5(COC5)C4)n3)cs2)c1 [Compound 644]
BRM
  pIC50: < 7.00
BRG-1
  pIC50: < 7.00

## CC(C)(C)n1ccc(C(=O)NCC(=O)Nc2nc(-c3cccc(N4CCCC5(CCOCC5)C4)n3)cs2)c1 [Compound 645]
BRM
  pIC50: < 8.00
BRG-1
  pIC50: < 8.00

## CC(C)(C)n1ccc(C(=O)NCC(=O)Nc2nc(-c3cccc(N4CC(F)(F)C4)n3)cs2)c1 [Compound 646]
BRM
  pIC50: < 7.00
BRG-1
  pIC50: < 7.00

## CC(C)(C)n1ccc(C(=O)NCC(=O)Nc2nc(-c3cccc(N4CC[C@@H](F)C4)n3)cs2)c1 [Compound 647]
BRM
  pIC50: < 8.00
BRG-1
  pIC50: < 8.00

## C[C@@]1(n2ccc(C(=O)NCC(=O)Nc3nc(-c4cccc(N5CCC5)c4)cs3)c2)CC1(F)F [Compound 651]
BRM
  pIC50: < 7.00
BRG-1
  pIC50: < 6.00

## C[C@]1(n2ccc(C(=O)NCC(=O)Nc3nc(-c4cccc(N5CCC5)c4)cs3)c2)CC1(F)F [Compound 652]
BRM
  pIC50: < 8.00
BRG-1
  pIC50: < 8.00

## CC(C)(C)n1ccc(C(=O)NCC(=O)Nc2nc(-c3cccc(N4CCCC5(COC5)C4)n3)cs2)c1 [Compound 653]
BRM
  pIC50: < 8.00
BRG-1
  pIC50: < 8.00

## C[C@H]1CCN(c2cccc(-c3csc(NC(=O)CNC(=O)c4ccn(C(C)(C)C)c4)n3)n2)C1 [Compound 654]
BRM
  pIC50: < 8.00
BRG-1
  pIC50: < 8.00

## Cc1nnc2n1CCN(c1cccc(-c3csc(NC(=O)CNC(=O)c4ccn(C(C)(C)C)c4)n3)n1)C2 [Compound 655]
BRM
  pIC50: < 7.00
BRG-1
  pIC50: < 7.00

## CC(C)(C)n1ccc(C(=O)NCC(=O)Nc2nc(-c3cccc(N4CCC(S(C)(=O)=O)CC4)n3)cs2)c1 [Compound 656]
BRM
  pIC50: < 7.00
BRG-1
  pIC50: < 7.00

## CC(C)(C)n1ccc(C(=O)NCC(=O)Nc2nc(-c3cccc(N4CCn5ccnc5C4)n3)cs2)c1 [Compound 657]
BRM
  pIC50: < 8.00
BRG-1
  pIC50: < 7.00

## CN1CCc2cc(-c3csc(NC(=O)CNC(=O)c4ccn(S(C)(=O)=O)c4)n3)ccc21 [Compound 658]
BRM
  pIC50: < 8.00
BRG-1
  pIC50: < 8.00

## CC(C)(C)n1ccc(C(=O)NCC(=O)Nc2nc(-c3cccc(N4CC[C@H]5OCCC[C@@H]5C4)n3)cs2)c1 [Compound 659]
BRM
  pIC50: < 8.00
BRG-1
  pIC50: < 7.00

## CC(C)(C)n1ccc(C(=O)NCC(=O)Nc2nc(-c3cccc(N4CC5CN(c6ccncc6)CC5C4)n3)cs2)c1 (stereo not drawn) [Compound 660]
BRM
  pIC50: < 7.00
BRG-1
  pIC50: < 7.00

## CC(C)(C)n1ccc(C(=O)NCC(=O)Nc2nc(-c3cccc(N4C[C@@H]5OCC(F)(F)[C@@H]5C4)n3)cs2)c1 [Compound 661]
BRM
  pIC50: < 7.00
BRG-1
  pIC50: < 7.00

## CC(C)(C)n1ccc(C(=O)NCC(=O)Nc2nc(-c3cccc(N4CC[C@H]5COC[C@@H]5C4)n3)cs2)c1 [Compound 662]
BRM
  pIC50: > 8.00
BRG-1
  pIC50: > 8.00

## CC(C)(C)n1ccc(C(=O)NCC(=O)Nc2nc(-c3cccc(N4C[C@@H](F)[C@@H](F)C4)n3)cs2)c1 [Compound 664]
BRM
  pIC50: < 8.00
BRG-1
  pIC50: < 7.00

## CC(C)(C)n1ccc(C(=O)NCC(=O)Nc2nc(-c3cccc(N4CCN(S(C)(=O)=O)CC4)n3)cs2)c1 [Compound 665]
BRM
  pIC50: < 7.00
BRG-1
  pIC50: < 7.00

## CC(C)(C)n1ccc(C(=O)NCC(=O)Nc2nc(-c3cccc(N4CCC(S(C)(=O)=O)C4)n3)cs2)c1 (stereo not drawn) [Compound 667]
BRM
  pIC50: < 8.00
BRG-1
  pIC50: < 7.00

## CC(C)(C)n1ccc(C(=O)NCC(=O)Nc2nc(-c3cccc(N4CCCC5(CCO5)C4)n3)cs2)c1 (stereo not drawn) [Compound 668]
BRM
  pIC50: < 8.00
BRG-1
  pIC50: < 8.00

## CC(C)(C)n1ccc(C(=O)NCC(=O)Nc2nc(-c3cccc(N4CCCC5(CCCO5)C4)n3)cs2)c1 (stereo not drawn) [Compound 669]
BRM
  pIC50: < 7.00
BRG-1
  pIC50: < 7.00

## CN(C)[C@@H]1CCN(c2cccc(-c3csc(NC(=O)CNC(=O)c4ccn(C(C)(C)C)c4)n3)n2)C1 [Compound 670]
BRM
  pIC50: < 8.00
BRG-1
  pIC50: < 7.00

## CC(C)(C)n1ccc(C(=O)NCC(=O)Nc2nc(-c3cccc(N4CCC5(CCOC5)C4)n3)cs2)c1 (stereo not drawn) [Compound 671]
BRM
  pIC50: < 8.00
BRG-1
  pIC50: < 7.00

## CC(C)(C)n1ccc(C(=O)NCC(=O)Nc2nc(-c3cccc(N4CCC(C#N)C4)n3)cs2)c1 (stereo not drawn) [Compound 672]
BRM
  pIC50: < 8.00
BRG-1
  pIC50: < 8.00

## C[C@@H]1CCN(c2cccc(-c3csc(NC(=O)CNC(=O)c4ccn(C(C)(C)C)c4)n3)n2)C1 [Compound 673]
BRM
  pIC50: < 8.00
BRG-1
  pIC50: < 8.00

## CC(C)(C)n1ccc(C(=O)NCC(=O)Nc2nc(-c3cccc(N4C[C@H]5COC[C@H]5C4)n3)cs2)c1 [Compound 674]
BRM
  pIC50: < 8.00
BRG-1
  pIC50: < 8.00

## CC(C)(C)n1ccc(C(=O)NCC(=O)Nc2nc(-c3cccc(N4CCC(F)C4)n3)cs2)c1 (stereo not drawn) [Compound 675]
BRM
  pIC50: < 8.00
BRG-1
  pIC50: < 8.00

## CC(C)(C)n1ccc(C(=O)NCC(=O)Nc2nc(-c3cccc(N4CCC5OCCC5C4)n3)cs2)c1 (stereo not drawn) [Compound 676]
BRM
  pIC50: < 8.00
BRG-1
  pIC50: < 8.00

## CC(C)(C)n1ccc(C(=O)NCC(=O)Nc2nc(-c3cccc(N4C[C@@H](F)[C@H](F)C4)n3)cs2)c1 [Compound 677]
BRM
  pIC50: < 7.00
BRG-1
  pIC50: < 7.00

## Cc1cc(N2CCN(c3cccc(-c4csc(NC(=O)CNC(=O)c5ccn(C(C)(C)C)c5)n4)n3)CC2)ccn1 [Compound 678]
BRM
  pIC50: < 7.00
BRG-1
  pIC50: < 7.00
